Marks after values point to notes of the source that are not given here.
Experiments:
Type in all cases: cell-based, human
[1] = system: afatinib-resistant (AR) H1975 cells; test: In-cell immunostaining of protein expression and phosphorylation, afatinib-resistant H1975 cells; settings: 1975 AR; 6 h; GZ17-6.02 2 mM final curcumin, pemetrexed 500 nM; vehicle 100%
Procedure: […] Cells were fixed in place 6 hours after treatment and immunostaining of single cells performed to determine the levels of each protein/phosphor-protein (n=3+/−SD). * p<0.05 less than vehicle control; # p<0.05 greater than vehicle control.
(§1) Generation of erlotinib, afatinib and osimertinib-resistant cells. Cells were incubated in vitro with increasing concentrations of vehicle control or erlotinib or osimertinib until after ˜6 weeks the HCC827 and H1975 and H1650 cells grew with similar kinetics to sensitive cells in either erlotinib ([…]) or osimertinib ([…]), respectively. Afatinib-resistant cells were created in vivo by repeated high dosing until tumors disappeared and then regrew, as previously described.
(§2) Assessments of protein expression and protein phosphorylation. Multi-channel fluorescence HCS microscopes perform true in-cell western blotting. Three independent cultures derived from three thawed vials of cells of a tumor were sub-cultured into individual 96-well plates. Twenty-four hours after plating, the cells are transfected with a control plasmid or a control siRNA, or with an empty vector plasmid or with plasmids to express various proteins. After another 24 hours, the cells are ready for drug exposure(s). At various time-points after the initiation of drug exposure, cells are fixed in place using paraformaldehyde and using Triton X100 for permeabilization. Standard immunofluorescent blocking procedures are employed, followed by incubation of different wells with a variety of validated primary antibodies and subsequently validated fluorescent-tagged secondary antibodies are added to each well. The microscope determines the background fluorescence in the well and in parallel randomly determines the mean fluorescent intensity of 100 cells per well.

[2] = system: osimertinib-resistant (OR) H1650 cells; test: In-cell immunostaining of protein expression and phosphorylation, osimertinib-resistant H1650 cells; settings: 6 h, VEH = 100
Procedure: as §1, §2

[3] = system: osimertinib-resistant (OR) H1975 cells; test: In-cell immunostaining of protein expression and phosphorylation, osimertinib-resistant H1975 cells; set-up: HDAC 1 expression / HDAC 2 expression / HDAC 3 expression / HDAC 4 expression / HDAC 5 expression / HDAC 6 expression / HDAC 7 expression / HDAC 8 expression / HDAC 9 expression / HDAC 10 expression / HDAC 11 expression: scale not given here; settings: 6 h
Procedure: as §1, §2

[4] = system: H1650 cells (wild type); test: In-cell immunostaining of protein expression and phosphorylation, H1650 wild type cells; settings: H1650 WT, 6 h; VEH = 100
Procedure: as §2

[5] = 1975 OR, GZ17-6.02 2 mM final curcumin, pemetrexed 500 nM
[6] = 1975 OR, GZ17-6.02 2 mM final curcumin, pemetrexed 500 nM, vehicle 100%
[7] = 1975 OR, GZ17-6.02, pemetrexed 500 nM, vehicle 100%

Nc1nc2[nH]cc(CCc3ccc(C(=O)N[C@@H](CCC(=O)O)C(=O)O)cc3)c2c(=O)[nH]1 [PEM, Pemetrexed]
ATG5 [1]: 107% | Beclin1 [1]: 111% | CD95 [1]: 101% | CHOP [1]: 104% | ERBB1 [1]: 101% | ERBB2 [1]: 100% | ERBB3 [1]: 99% | ERBB4 [1]: 100% | ERK2 [1]: 99% | FAS-L [1]: 108% | GRP78 [1]: 109% | JAK2 [1]: 100% | P-AKT T308 [1]: 88% | P-AMPKα T172 [1]: 107% | P-ATG13 S318 [1]: 105% | P-ATM S1980 [1]: 108% | P-B1 [1]: 93% | P-B2 [1]: 97% | P-B3 [1]: 97% | P-B4 [1]: 96% | P-ERK1/2 [1]: 98% | P-JAK2 [1]: 87* % | P-NFκB S536 [1]: 98% | P-PDGFRβ [1]: 84* % | P-PERK T980 [1]: 102% | P-SRC Y416 [1]: 92% | P-SRC Y527 [1]: 109% | P-STAT3 Y705 [1]: 95% | P-STAT5 Y694 [1]: 94% | P-ULK1 S317 [1]: 105% | P-ULK1 S757 [1]: 95% | P-c-MET [1]: 102% | P-c-MT [1]: 88% | P-eIF2α S51 [1]: 103% | P-mTOR S2448 [1]: 95% | P-mTOR S2481 [1]: 83* % | PDGFRβ [1]: 100% | PP1 [1]: 104% | c-KIT [1]: 101% | c-MET [1]: 100% | p70 S6K [1]: 100% | p70 S6K T389 [1]: 97% | BCL-XL expression [2]: 85* | ERK2 expression [2]: 100 | FLIP-s expression [2]: 93 | MCL-1 expression [2]: 86* | ERK2 expression [3, 5]: 101 | HDAC 1 expression [3, 5]: 97 | HDAC 2 expression [3, 5]: 93 | HDAC 3 expression [3, 5]: 98 | HDAC 4 expression [3, 5]: 100 | HDAC 5 expression [3, 5]: 95 | HDAC 6 expression [3, 5]: 93 | HDAC 7 expression [3, 5]: 98 | HDAC 8 expression [3, 5]: 101 | HDAC 9 expression [3, 5]: 97 | HDAC 10 expression [3, 5]: 100 | HDAC 11 expression [3, 5]: 101 | ATG5 [3, 6]: 110% | Beclin1 [3, 6]: 111% | CD95 [3, 6]: 100% | CHOP [3, 6]: 107% | ERBB1 [3, 6]: 99% | ERBB2 [3, 6]: 100% | ERBB3 [3, 6]: 101% | ERBB4 [3, 6]: 100% | ERK2 [3, 6]: 100% | FAS-L [3, 6]: 110% | GRP78 [3, 6]: 115# % | P-AMPKα T172 [3, 6]: 112% | P-ATG13 S318 [3, 6]: 106% | P-ATM S1980 [3, 6]: 109% | P-B1 [3, 6]: 88% | P-B2 [3, 6]: 92% | P-B3 [3, 6]: 93% | P-B4 [3, 6]: 95% | P-ERK1/2 [3, 6]: 96% | P-JAK2 [3, 6]: 89% | P-NFκB S536 [3, 6]: 92% | P-PDGFRβ [3, 6]: 98% | P-PERK T980 [3, 6]: 101% | P-SRC Y416 [3, 6]: 90% | P-SRC Y527 [3, 6]: 112% | P-STAT3 Y705 [3, 6]: 88% | P-STAT5 Y694 [3, 6]: 87* % | P-ULK1 S317 [3, 6]: 103% | P-ULK1 S757 [3, 6]: 96% | P-c-MET [3, 6]: 88% | P-c-MT [3, 6]: 90% | P-eIF2α S51 [3, 6]: 101% | P-mTOR S2448 [3, 6]: 94% | P-mTOR S2481 [3, 6]: 92% | PDGFRβ [3, 6]: 100% | PP1 [3, 6]: 105% | c-KIT [3, 6]: 101% | c-MET [3, 6]: 100% | p70 S6K [3, 6]: 101% | p70 S6K T389 [3, 6]: 98% | JAK2 [3, 7]: 98% | P-AKT T308 [3, 7]: 87* % | BCL-XL expression ([3]; H1975 OR, VEH = 100): 90 | ERK2 expression ([3]; H1975 OR, VEH = 100): 101 | FLIP-s expression ([3]; H1975 OR, VEH = 100): 98 | MCL-1 expression ([3]; H1975 OR, VEH = 100): 84* | BCL-XL expression [4]: 84* | ERK2 expression [4]: 100 | FLIP-s expression [4]: 92 | MCL-1 expression [4]: 83*

From patent US20220008359A1, “COMBINATION ANTI-CANCER PRODUCTS AND METHODS” (priority 2020, published 2022)
